# Experimental data from patent US9233071B2, “Methods for treating retinopathy with extended therapeutic effect” (Allergan, Inc., priority 2004, dated 2016).
# Columns and labels:
# [1] = test system: patients with glaucoma; test: Loss of IOP lowering upon cessation of chronic topical anti-glaucoma medication (Example A); type: in vivo, human; settings: for mean IOP from baseline on day 28: day 28, after four weeks of topical medication; for mean IOP from baseline on day 30: day 30, after 2 days with no medication
# Text: To examine loss or reduction of a therapeutic effect (i.e. IOP lowering) upon cessation of chronic medication administration used to treatment a chronic ocular condition, three different populations of patients with glaucoma were examined.
# 1. A population of twenty patients with glaucoma was examined.
# [2] = test system: VEGF165-induced retinal vasculopathy; test: Remnant effect after intravitreal triamcinolone acetonide, VEGF165-induced retinal vasculopathy (Example 9); type: in vivo, Dutch-belted rabbits; settings: 48 hours after VEGF165; 4 mg TA removed after one minute
# Procedure: An experiment was carried out which determined existence of a remnant effect (i.e. a therapeutic effect of the active agent when a therapeutic amount of the active agent was not longer present) of intravitreal triamcinolone. Six Dutch-belted rabbits were divided into two groups of three each. After standard pars plana vitrectomy, one group received 4 mg of the glucocorticoid triamcinolone acetonide (TA) in a 0.1 ml volume (Kenalog® 40), and the other group received 0.1 ml of a 5% PLGA (poly lactic/glycolic acid) solution. One minute later the TA or PLGA was removed with a subtotal vitrectomy and soft tip needle. Forty-eight hours after the surgery VEGF165 (500 ng/50 μl) was injected intravitreally via a 29 gauge needle to induce retinal vasculopathy and assess a pharmacological action of any remnant effect of either TA or PLGA. Assessment of retinal color fundus imaging, fluorescein angiography (FA), and fluorometry was made upon VEGF administration and 48 hours following such administration to assess leak from the retina vasculature as a result of VEGF165 administration, and the effect of either TA or PLGA on such leakage.
# [3] = test system: glaucoma; settings: after stopping topical medication; cited from earlier work
# [4] = 0.1% ophthalmic suspension, 1 drop 4 times a day (approximately 200 μg per day); cited from earlier work
structure (smiles),measurement,setting,value
"CCNC(=O)CCC/C=C\C[C@@H]1[C@@H](/C=C/[C@@H](O)CCc2ccccc2)[C@H](O)C[C@@H]1O [Lumigan, Bimatoprost]",mean IOP from baseline on day 28,[1],−8 mm Hg
same,mean IOP from baseline on day 30,[1],−6 mm Hg
"CC1(C)O[C@@H]2C[C@H]3[C@@H]4CCC5=CC(=O)C=C[C@]5(C)[C@@]4(F)[C@@H](O)C[C@]3(C)[C@]2(C(=O)CO)O1 [TA, triamcinolone acetonide]","Fluorophotometry area under the curve, change from baseline",[2],3±65%
Brc1c(NC2=NCCN2)ccc2nccnc12 [brimonidine],washout period (return to baseline IOP) of topical anti-glaucoma medication,[3],two to four and five
same,mean IOP from baseline on day 14,"[1]; day 14, after 14 days of topical medication",−2 mm Hg
same,mean IOP from baseline on day 15,"[1]; day 15, after 24 hours with no medication",−0.8 mm Hg
C[C@@H]1C[C@H]2[C@@H]3CCC4=CC(=O)C=C[C@]4(C)[C@@]3(F)[C@@H](O)C[C@]2(C)[C@@]1(O)C(=O)CO [dexamethasone],share of the topical dose that reaches the anterior segment,[4],about 1%
CCN[C@H]1C[C@H](C)S(=O)(=O)c2sc(S(N)(=O)=O)cc21 [dorzolamide],washout period (return to baseline IOP) of topical anti-glaucoma medication,[3],two to four
CNC[C@H](O)c1ccc(O)c(O)c1 [epinephrine],washout period (return to baseline IOP) of topical anti-glaucoma medication,[3],about three
CC[C@@H]1C(=O)OC[C@@H]1Cc1cncn1C [pilocarpine],washout period (return to baseline IOP) of topical anti-glaucoma medication,[3],about 48 hours
CC(C)(C)NC[C@H](O)COc1nsnc1N1CCOCC1 [timolol],mean IOP from baseline on day 28,[1],−4 mm Hg
same,mean IOP from baseline on day 30,[1],−2 mm Hg
